Reference: ChEMBL document CHEMBL5154842, “Unique Carbazole-Oxadiazole Derivatives as New Potential Antibiotics for Combating Gram-Positive and -Negative Bacteria” (J Med Chem, 2022)
≈ marks a conversion by molar mass, not a printed value. Calls of active or inactive are those of the source. The rule behind the calls is not given here.

Columns and labels:
Escherichia coli [1] = assay: Antibacterial activity against Escherichia coli 25922 assessed as inhibition of bacterial growth incubated for 24 hrs by CLSI protocol based two fold serial dilution method; type: functional
Klebsiella pneumoniae = assay: Antibacterial activity against Klebsiella pneumonia assessed as inhibition of bacterial growth incubated for 24 hrs by CLSI protocol based two fold serial dilution method; type: functional
Staphylococcus aureus [2] = assay: Antibacterial activity against methicillin-resistant Staphylococcus aureus N315 assessed as change in susceptibility at sub-MIC treated over 9 serial passages measured after 9 days by resistance development assay; type: functional, organism-based; details: time 9.0 day
Staphylococcus aureus [3] = assay: Antibacterial activity against Staphylococcus aureus assessed as inhibition of bacterial growth incubated for 24 hrs by CLSI protocol based two fold serial dilution method; type: functional
Enterococcus faecalis = assay: Antibacterial activity against Enterococcus faecalis assessed as inhibition of bacterial growth incubated for 24 hrs by CLSI protocol based two fold serial dilution method; type: functional
Pseudomonas aeruginosa [4] = assay: Antibacterial activity against Pseudomonas aeruginosa assessed as inhibition of bacterial growth incubated for 24 hrs by CLSI protocol based two fold serial dilution method; type: functional
Acinetobacter baumannii = assay: Antibacterial activity against Acinetobacter baumannii assessed as inhibition of bacterial growth incubated for 24 hrs by CLSI protocol based two fold serial dilution method; type: functional
Pseudomonas aeruginosa [5] = assay: Antibacterial activity against Pseudomonas aeruginosa ATCC 27853 assessed as inhibition of bacterial growth incubated for 24 hrs by CLSI protocol based two fold serial dilution method; type: functional
Staphylococcus aureus [6] = assay: Antibacterial activity against Staphylococcus aureus 25923 assessed as inhibition of bacterial growth incubated for 24 hrs by CLSI protocol based two fold serial dilution method; type: functional
Pseudomonas aeruginosa [7] = assay: Antibacterial activity against Pseudomonas aeruginosa ATCC 27853 assessed as change in susceptibility at sub-MIC treated over 9 serial passages measured after 9 days by resistance development assay; type: functional, organism-based; details: time 9.0 day
Escherichia coli [8] = assay: Antibacterial activity against Escherichia coli assessed as inhibition of bacterial growth incubated for 24 hrs by CLSI protocol based two fold serial dilution method; type: functional
Staphylococcus aureus [9] = assay: Antibacterial activity against methicillin-resistant Staphylococcus aureus N315 assessed as inhibition of bacterial growth incubated for 24 hrs by CLSI protocol based two fold serial dilution method; type: functional
Staphylococcus aureus [10] = assay: Antibacterial activity against Staphylococcus aureus 29213 assessed as inhibition of bacterial growth incubated for 24 hrs by CLSI protocol based two fold serial dilution method; type: functional
Cell membrane [11] = assay: Induction of inner membrane permeabilization in methicillin-resistant Staphylococcus aureus N315 assessed as increase in PI uptake by measuring increase in fluorescence intensity at 1 to 8 ug/ml incubated for 30 mins by calcein-AM/PI staining based fluorescence microscopic analysis; details: dose 1-8 µg/ml, DDE = dose-dependent effect
[12] = Hemolytic activity in human RBC assessed as hemolysis at 1 to 32 ug/ml measured after 60 mins by microplate reader assay relative to control; type: toxicity, cell-based, Erythrocyte; details: red blood cells (erythrocytes), at 1 to 32 µg/mL, dose 1-32 µg/ml, read-out: Activity
Cell membrane [13] = assay: Induction of cell membrane disruption in methicillin-resistant Staphylococcus aureus N315 assessed as increase in nucleotides leakage at 0.5 to 6 ug/ml incubated under agitation condition by UV absorption based analysis; type: subcellular; details: dose 0.5-6 µg/ml
Cell membrane [14] = assay: Induction of cell membrane disruption in methicillin-resistant Staphylococcus aureus N315 assessed as increase in protein leakage at 0.5 to 6 ug/ml incubated under agitation condition by Bradford assay; details: dose 0.5-6 µg/ml
Staphylococcus aureus [15] = assay: Antibacterial activity against methicillin-resistant Staphylococcus aureus N315 assessed as inhibition of bacterial growth at 0.5 to 16 ug/ml measured after 24 hrs by microplate reader assay; type: functional, organism-based; details: dose 0.5-16 µg/ml
Staphylococcus aureus [16] = assay: Antibacterial activity against methicillin-resistant Staphylococcus aureus N315 assessed as increase in germicidal effect at 0.5 ug/ml measured after 7 hrs by microplate reader assay; type: functional, organism-based; details: dose 0.5 µg/ml
Staphylococcus aureus [17] = assay: Antibacterial activity against methicillin-resistant Staphylococcus aureus N315 assessed as inhibition of bacterial growth at 0.25 to 64 ug/ml incubated for 24 hrs by Alamar blue assay; type: functional, organism-based; details: dose 0.25-64 µg/ml
Staphylococcus aureus [18] = assay: Antibacterial activity against methicillin-resistant Staphylococcus aureus N315 assessed as increase in germicidal effect at 4 ug/ml measured after 7 hrs by microplate reader assay; type: functional, organism-based; details: dose 4.0 µg/ml
Erythrocyte = assay: Hemolytic activity in human RBC assessed as hemolysis rate at 1 to 32 ug/ml measured after 60 mins by microplate reader assay; type: toxicity, cell-based; details: 1 h, dose 1-32 µg/ml

With `Sc1nnc(COc2cccc3c2c2ccccc2n3CC2CCCC2)o1` the MIC (Escherichia coli [1]) was 2 µg/mL (≈ 5.27 µM), the MIC (Klebsiella pneumoniae) was 1 µg/mL (≈ 2.64 µM) and the Activity (Staphylococcus aureus [2]) was “Active”. For the same compound, the MIC (Staphylococcus aureus [3]) was 256 µg/mL (≈ 675 µM), the MIC (Enterococcus faecalis) was 2 µg/mL (≈ 5.27 µM) and the MIC (Pseudomonas aeruginosa [4]) was 256 µg/mL (≈ 675 µM). For the same compound, the MIC (Acinetobacter baumannii) was 1 µg/mL (≈ 2.64 µM), the MIC (Pseudomonas aeruginosa [5]) was 0.25 µg/mL (≈ 0.659 µM) and the MIC (Staphylococcus aureus [6]) was 1 µg/mL (≈ 2.64 µM). The Activity (Pseudomonas aeruginosa [7]) was “Active”, the MIC (Escherichia coli [8]) was 1 µg/mL (≈ 2.64 µM) and the MIC (Staphylococcus aureus [9]) was 0.25 µg/mL (≈ 0.659 µM). For the same compound, the MIC (Staphylococcus aureus [10]) was 8 µg/mL (≈ 21.1 µM).
For `Sc1nnc(Cn2c3ccccc3c3c(OCC4CC4)cccc32)o1`, the Activity (Cell membrane [11]) was “Dde”, the MIC (Escherichia coli [1]) was 1 µg/mL (≈ 2.85 µM) and the hemolysis at 1 h [12] was < 3%. For the same compound, the Activity (Cell membrane [13]) was “Active”, the MIC (Klebsiella pneumoniae) was 4 µg/mL (≈ 11.4 µM) and the Activity (Staphylococcus aureus [2]) was “Active”. The Activity (Cell membrane [14]) was “Active”, the MIC (Staphylococcus aureus [3]) was 256 µg/mL (≈ 728 µM) and the MIC (Enterococcus faecalis) was 2 µg/mL (≈ 5.69 µM). For the same compound, the MIC (Pseudomonas aeruginosa [4]) was 256 µg/mL (≈ 728 µM), the Activity (Staphylococcus aureus [15]) was “Active” and the MIC (Acinetobacter baumannii) was 4 µg/mL (≈ 11.4 µM). For the same compound, the Activity (Staphylococcus aureus [16]) was “Active”, the MIC (Pseudomonas aeruginosa [5]) was 4 µg/mL (≈ 11.4 µM) and the MIC (Staphylococcus aureus [6]) was 4 µg/mL (≈ 11.4 µM). For the same compound, the MIC (Escherichia coli [8]) was 2 µg/mL (≈ 5.69 µM), the Activity (Staphylococcus aureus [17]) was “Active” and the MIC (Staphylococcus aureus [9]) was 0.5 µg/mL (≈ 1.42 µM). The MIC (Staphylococcus aureus [10]) was 1 µg/mL (≈ 2.85 µM).
For `Sc1nnc(COc2cccc3c2c2ccccc2n3CC2CCCCC2)o1`, the MIC (Escherichia coli [1]) was 2 µg/mL (≈ 5.08 µM), the MIC (Klebsiella pneumoniae) was 2 µg/mL (≈ 5.08 µM) and the Activity (Staphylococcus aureus [2]) was “Active”. It also gave an MIC (Staphylococcus aureus [3]) of 256 µg/mL (≈ 651 µM), an MIC (Enterococcus faecalis) of 4 µg/mL (≈ 10.2 µM) and an MIC (Pseudomonas aeruginosa [4]) of 256 µg/mL (≈ 651 µM). It also gave an MIC (Acinetobacter baumannii) of 4 µg/mL (≈ 10.2 µM), an MIC (Pseudomonas aeruginosa [5]) of 1 µg/mL (≈ 2.54 µM) and an MIC (Staphylococcus aureus [6]) of 8 µg/mL (≈ 20.3 µM). For the same compound, the Activity (Pseudomonas aeruginosa [7]) was “Active”, the MIC (Escherichia coli [8]) was 4 µg/mL (≈ 10.2 µM) and the MIC (Staphylococcus aureus [9]) was 0.5 µg/mL (≈ 1.27 µM). The MIC (Staphylococcus aureus [10]) was 16 µg/mL (≈ 40.7 µM).
With `Sc1nnc(Cn2c3ccccc3c3c(OCC4CCCCC4)cccc32)o1` the MIC (Escherichia coli [1]) was 0.25 µg/mL (≈ 0.635 µM), the MIC (Klebsiella pneumoniae) was 4 µg/mL (≈ 10.2 µM) and the Activity (Staphylococcus aureus [2]) was “Active”. The MIC (Staphylococcus aureus [3]) was 256 µg/mL (≈ 651 µM), the MIC (Enterococcus faecalis) was 4 µg/mL (≈ 10.2 µM) and the MIC (Pseudomonas aeruginosa [4]) was 128 µg/mL (≈ 325 µM). For the same compound, the Activity (Staphylococcus aureus [15]) was “Active”, the Activity (Staphylococcus aureus [18]) was “Active” and the MIC (Acinetobacter baumannii) was 0.5 µg/mL (≈ 1.27 µM). The Activity (Erythrocyte) was “Toxic”, the MIC (Pseudomonas aeruginosa [5]) was 4 µg/mL (≈ 10.2 µM) and the MIC (Staphylococcus aureus [6]) was 4 µg/mL (≈ 10.2 µM). For the same compound, the MIC (Escherichia coli [8]) was 1 µg/mL (≈ 2.54 µM), the Activity (Staphylococcus aureus [17]) was “Active” and the MIC (Staphylococcus aureus [9]) was 0.25 µg/mL (≈ 0.635 µM). The MIC (Staphylococcus aureus [10]) was 4 µg/mL (≈ 10.2 µM).
With `Sc1nnc(COc2cccc3c2c2ccccc2n3CC2CC2)o1` the MIC (Escherichia coli [1]) was 1 µg/mL (≈ 2.85 µM), the MIC (Klebsiella pneumoniae) was 4 µg/mL (≈ 11.4 µM) and the Activity (Staphylococcus aureus [2]) was “Active”. The MIC (Staphylococcus aureus [3]) was 256 µg/mL (≈ 728 µM), the MIC (Enterococcus faecalis) was 8 µg/mL (≈ 22.8 µM) and the MIC (Pseudomonas aeruginosa [4]) was 256 µg/mL (≈ 728 µM). It also gave an MIC (Acinetobacter baumannii) of 16 µg/mL (≈ 45.5 µM), an MIC (Pseudomonas aeruginosa [5]) of 1 µg/mL (≈ 2.85 µM) and an MIC (Staphylococcus aureus [6]) of 4 µg/mL (≈ 11.4 µM). For the same compound, the Activity (Pseudomonas aeruginosa [7]) was “Active”, the MIC (Escherichia coli [8]) was 4 µg/mL (≈ 11.4 µM) and the MIC (Staphylococcus aureus [9]) was 0.5 µg/mL (≈ 1.42 µM). For the same compound, the MIC (Staphylococcus aureus [10]) was 8 µg/mL (≈ 22.8 µM).
